Results from PubChem BioAssay (NCI).
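Values below derive from 48-hour exposures of cells grown in 96-well plates, with endpoints linearly interpolated between the two concentrations bracketing the appropriate inhibition level. GI50: concentration for 50% inhibition of growth. Definition used: TGI = concentration required for complete inhibition of growth.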 Where a SMILES comes first, the peptide text is derived from it. The star is where a group is joined. ONb = O=[N+]([O-])c1ccc(CO*)cc1; Boc = CC(C)(C)OC(=O)*

What was measured:
Test in all cases: NCI-60 cell line screen, 48 h
[1] = system: SK-OV-3 ovarian
[2] = system: U251 CNS
[3] = system: SK-MEL-28 melanoma
[4] = system: HCT-116 colon
[5] = system: ACHN renal
[6] = system: NCI-H23 lung
[7] = system: COLO 205 colon
[8] = system: SR leukemia
[9] = system: KM12 colon
[10] = system: HCT-15 colon

Compound	TGI [1] [µM]	TGI [2] [µM]	TGI [3] [µM]	TGI [4] [µM]	TGI [5] [µM]	TGI [6] [µM]	TGI [7] [µM]	TGI [8] [µM]	TGI [9] [µM]	TGI [10] [µM]	GI50 [1] [µM]	GI50 [3] [µM]	GI50 [10] [µM]	GI50 [5] [µM]	GI50 [6] [µM]	GI50 [7] [µM]	GI50 [8] [µM]
O=S(=O)(O)ON=C1c2ccccc2-c2ccccc21	> 100	> 100	> 100	> 100	> 100	> 100	> 100	> 100	> 100								
Cc1cccnc1/N=C/c1c(O)n(C)c(=O)[nH]c1=O	> 100	> 100	> 100	> 100	> 100	> 100	> 100		> 100	> 100							
O=c1[nH]c(Nc2cc(Cl)cc(Cl)c2)nc2nc[nH]c12	> 75	> 75		> 75	> 75	> 75	> 75		> 75	> 75							
O=C1/C(=C/c2ccccc2O)N=C(c2ccccc2)N1c1nc2ccccc2s1	> 100	28.7	> 100	77.5	64.3	38.5		7.19	> 100	44.9							
CCOC(=O)C1=C(C)N(c2ccc(C)cc2)C2=C(C(=O)N(c3ccccc3)C2c2ccccc2)C1c1ccccc1 (configuration not stated)		> 25	> 25	> 25	> 25	> 25	> 25	> 25		> 25							
Cc1ccc(O)c(-c2cc(-c3cccc(Cl)c3)c(C#N)c(N)n2)c1	66.2	30		30.1	42.1	77.6	32.3	30.3	64.2	28							
Cc1c2cnccc2c(C)c2c1c1ccccc1n2CCCCCCNCc1ccccc1	7.24	3.79	4.41	1.92		3.64	3.07		3.08	3.25							
CC1(CCCO)CCCCCCCCCC(C)(CCCO)C1=O (configuration not stated)	> 100	> 100	> 100	> 100	> 100	> 100	> 100		> 100	> 100							
CN(C)c1nncc2[nH]cnc12		> 100	> 100	> 100	> 100	> 100	> 100	> 100	> 100	> 100							
O=c1[nH]c(=O)n(C2CC(O)C(CO)O2)cc1C1=NC1 (configuration not stated)	> 100	> 100	> 100	> 100	> 100	> 100	> 100		> 100	> 100							
COc1cc(/C=C/C(=O)c2c(C)nc3ccccc3c2C)ccc1OCCCOc1cc2c(cc1OC)C(=O)N1CCC[C@H]1C=N2	1.13		0.044		0.106	0.0459	0.0453			1.01	0.064	0.0214	0.278	0.0313	0.0197	0.0211	0.0321
CCCCCCCCCCCCOP(=O)(O)OCC(N)C(=O)O (configuration not stated)	50.1	26.7	> 100	27.6	> 100	> 100	> 100	90		36.6							
COc1cc(COC(=O)N(CC(=O)O)c2ccccc2)c([N+](=O)[O-])cc1OC	> 100	> 100	> 100		> 100	> 100	> 100	> 100	> 100	> 100							
Cn1/c(=N\S(=O)(=O)c2ccccc2)n(S(=O)(=O)c2ccccc2)c2ccccc21	> 100	> 100	> 100	> 100	> 100	> 100	> 100		> 100	> 100							
N#CCCN(CCC#N)c1ccc(/C=C2\N=C(c3ccccc3)N(NC(N)=S)C2=O)cc1	> 100	> 100	> 100	> 100	> 100		> 100		> 100	> 100							
O=C(/C=C/c1ccc(/C=C/C(=O)c2ccc(O)cc2)cc1)c1ccc(O)cc1		> 100	> 100	> 100	> 100	> 100	> 100	> 100	> 100	> 100							
CC(C)CC(NC(=O)OC(C)(C)C)C(=O)NC(CCC(=O)OCc1ccc([N+](=O)[O-])cc1)C(=O)OCc1ccc([N+](=O)[O-])cc1 (stereo not drawn) (Boc-Leu-Glu(ONb)-ONb; configuration not given here)		> 100	30.9	> 100	> 100	59.4	> 100	37.1		> 100							
O=C1CCCC/C1=C\c1ccc(Br)cc1	44.5	9.79	31.6	31.6	9.18	33.2	32.8	> 100	5.83								
COc1ccc(/C=C2\CCC(CNc3ccc(OC)cc3)C2=O)cc1 (configuration not stated)	> 100	38.5	37.5	23.2	58.6	19	31.9		23.8	20.4							
O=C(/C=C/c1ccc(O)c(O)c1)c1cc(O)cc(O)c1	42.9	22.7	31.2	25.6	28.9	26.4	31.1	> 100		29.2							
CCN1CCN(c2nc3ccc([N+](=O)[O-])cc3nc2C(=O)c2ccccc2)CC1	41.7	31.9		31.2	29.3	34.4	30	31.8	31.8	25							
CC1C2CC(C(S(=O)(=O)N3CCOCC3)/C2=N\O)C1(C)C (configuration not stated)	> 100		> 100	> 100	> 100	> 100	> 100	> 100	> 100	> 100							
